Experimental findings from patent US20070099876A1, “Target directed chemotherapy of tumours of the sexual organs” (priority 2003, published 2007) are described below.

Molecules are shown by their SMILES.

This test deals with mammary carcinoma of the rat. Put plainly: mammary tumours induced by benzidine in female Wistar rats. Format: in vivo. The following applies: low dosage. The text has this:
For the development of active agents against tumours of the human sexual organs, an animal model closely similar to human tumours is needed, so that truly significant test results can be accomplished. The known “Huggins tumours” (C. Huggins et al., Rapid induction of mammary carcinoma in the rat and the influence of hormones, J. Exper. Med. 109, 25 (1959)) can be generated and combated easily, e.g. by endocrine manipulations and the usual chemotherapy (e.g. with endoxan®=cyclophosphamide monohydrate). In contrast, the tumours generated by benzidine in female Wistar rats require more time for induction and are (like human mammary tumour) only up to about 50% hormone dependent; they (like human mammary tumour) cannot be influenced effectively by chemotherapeutics and other methods of treatment in the art. Therefore, we have found the desired suitable animal model in Wistar rats with mammary tumours induced by benzidine.
20 female Wistar rats are treated with benzidine. The first benzidine dose is 150 mg/kg; then the doses are reduced to weekly 100 mg/kg. Then doses per 75 mg/kg follow within a gap of 14 days. There from a total dose of 1.225 g/kg results.
In total 29 mammary carcinomas are generated. […]
After the first tumour is generated (about 0.5 g) the benzidine application is stopped. […] The tumour size is determined tactually; experienced experimenters can determine it precisely to 0.1 g. […]

Consider `CN(C)/N=N/c1ccc2c(c1)CCC1C2CCC2(C)C(=O)CCC12` (stereo not shown) [Example 11, 3-(1,1-dimethyltriazenyl)-estrone], for which the “effect against mammary carcinoma of the rat” value is reported as “very good effect at low dosage”.
